Melting point data for 11 compounds are collected here from US6407103B2, “Indeno [1,2-c] pyrazol-4-ones and their uses” (Bristol-Myers Squibb Pharma Company, priority 1998, dated 2002).

For orientation: melting point means the temperature, or range, at which the solid turns liquid.

Counter-ions that a name gives are not always drawn. Where only a bound is given, the exact number is not on record here.

As for `CCc1[nH]nc2c1C(=O)c1c(NC(=O)NN3CCOCC3)cccc1-2` (as salt: TFA) [Example CCLIX, 3-ethyl-5-(morpholinocarbamoylamino)indeno[1,2-c]pyrazol-4-one], the melting point is 253 °C.

For `O=C(Nc1cccc2c1C(=O)c1c-2n[nH]c1C1CCN(C(=O)N2C[C@@H]3C[C@H]2CN3)CC1)NN1CCOCC1` (as salt: TFA) [Example CCLXXII, 3-(1-(((1S,4S)-(+)-2,5-diazabicyclo[2.2.1]hept-2-yl)carbonyl)piperidin-4-yl)-5-(morpholinocarbamoylamino)indeno[1,2-c]pyrazol-4-one], the melting point was 196 °C.

In the case of `CC(C)(C)OC(=O)NCCCC(=O)N1CCC(c2[nH]nc3c2C(=O)c2c(NC(=O)NN4CCOCC4)cccc2-3)CC1` [Example CCLXXVI, 3-(1-(3-(t-butoxycarbonylamino)propylcarbonyl)piperidin-4-yl)-5-(morpholinocarbamoylamino)indeno[1,2-c]pyrazol-4-one], the melting point is 73 °C.

Compound `O=C(Nc1cccc2c1C(=O)c1c-2n[nH]c1-c1ccc(N2CCNCC2)cc1)NN1CCC[C@@H]1COCc1ccccc1` (as salt: TFA) [Example CCXXXV, 3-(4-piperazinophenyl)-5-((2(R)-(benzyloxymethyl)pyrrolidino)carbamoylamino)indeno[1,2-c]pyrazol-4-one] showed a melting point of 207 °C.

Compound `O=C(Nc1cccc2c1C(=O)c1c-2n[nH]c1-c1ccc(C(=O)NC2CCCNC2)s1)NN1CCOCC1` (centres unmarked) (as salt: TFA) [Example CLXVIII, 3-(5-((3-piperidyl)aminocarbonyl)-2-thienyl)-5-(morpholinocarbamoylamino)indeno[1,2-c]pyrazol-4-one] came in with a melting point above 300 °C.

`Nc1ccc(CC(=O)N2CCC(c3[nH]nc4c3C(=O)c3c(NC(=O)NN5CCOCC5)cccc3-4)CC2)cc1` (as salt: TFA) [Example CCXCIV, 3-(1-(4-aminobenzylcarbonyl)piperidin-4-yl)-5-(morpholinocarbamoylamino)indeno[1,2-c]pyrazol-4-one]: the melting point was determined as 177 °C.

Turning to `COC(=O)[C@H]1CC[C@H](c2[nH]nc3c2C(=O)c2c(NC(=O)NN4CCOCC4)cccc2-3)CC1` (as salt: TFA) [Example CCCI, 3-(trans-4-(methoxycarbonyl)cyclohexyl)-5-(morpholinocarbamoylamino)indeno[1,2-c]pyrazol-4-one], the melting point was found to be 259 °C.

Compound `CC(C)(C)OC(=O)N1CCCC(C(=O)N2CCC(c3[nH]nc4c3C(=O)c3c(NC(=O)NN5CCOCC5)cccc3-4)CC2)C1` (centres unmarked) [Example CCLXXXIX, 3-(1(1-(t-butoxycarbonyl)piperidin-3-ylcarbonyl)piperidin-4-yl)-5-(morpholinocarbamoylamino)indeno[1,2-c]pyrazol-4-one] displayed a melting point of 196 °C.

`O=C(Nc1cccc2c1C(=O)c1c-2n[nH]c1-c1ccc(C(=O)NC2CCCCC2)s1)NN1CCOCC1` (as salt: TFA) [Example CLXI, 3-(5-cyclohexylaminocarbonyl-2-thienyl)-5-(morpholinocarbamoylamino)indeno[1,2-c]pyrazol-4-one] gave a melting point of 264 °C.

For `COc1ccc(-c2[nH]nc3c2C(=O)c2c(NC(=O)Cc4ccc(NC(=O)CN)cc4)cccc2-3)cc1` [Example XXXVIII, 3-(4-methoxyphenyl)-5-((4-(aminomethylcarbonylamino)phenyl)acetamido) indeno[1,2-c]pyrazol-4-one], the melting point was 228 °C.

With `COC[C@H]1CCCN1NC(=O)Nc1cccc2c1C(=O)c1c-2n[nH]c1-c1ccc(C(=O)N2CCN(C)CC2)s1` (as salt: TFA) [Example CCIII, 3-(5-(4-methylpiperazinocarbonyl)-2-thienyl)-5-(2(R)-(methoxymethyl)pyrrolidinocarbamoylamino)indeno[1,2-c]pyrazol-4-one], the melting point is 181 °C.
